Holding throughout (format): in vivo, mouse
For assay [1], the system named is Pten^pc−/−; Trp53^pc−/− prostate tumors. The experiment in a line: Tumor growth by MRI in Pten^pc−/−; Trp53^pc−/− mice under drug or antibody treatment. The following applies: for tumor volume: individual mice. The method, then:
Mice were allocated at random to experimental groups and studies were performed in an unblended manner. For treatment with the CXCR2 antagonist, SB225002 (Cayman Chemical #13336) was dissolved in DMSO (10 mg/ml) and diluted in vehicle (0.9% NaCl, 0.3% Tween 80) for in vivo administration. Mice (4 months of age) were treated daily for 10 days by intraperitoneal injection (5 mg/kg) and prostate tumor tissue (anterior lobes) was subjected to Flow Cytometry and histological analysis. For MRI analysis, mice (4 months of age) were treated daily for 21 days (Pten^pc−/−; Zbtb7a^pc−/−), for 14 days (Pten^pc−/−; Trp53^pc−/−) or for 14 days (Pten^pc−/−; Pml^pc−/−) by intraperitoneal injection (5 mg/kg). For depletion of Gr-1+/CD11b+ cells, Ly6G-depletion antibody (1A8, BioXcell) and control Rat IgG2a antibody (BioXcell) were diluted in phosphate-buffered saline (PBS) for in vivo administration. Mice (4 months of age) were treated every other day for 10 days by intraperitoneal injection (200-300 μg/mouse). InVivoMAb anti-mouse Ly6G/Ly6C (Gr-1) antibody, clone RB6-8C5 (BE0075, BioXcell), and control Rat IgG2b antibody (BE0090, BioXcell) were diluted in PBS and Pten^pc−/−; Trp53^pc−/− mice were treated every other day for 14 days by intraperitoneal injection (200 μg/mouse). For neutralization of CXCL5, anti-Mouse CXCL5 antibody (Leinco Technologies) and control Rat IgG2a antibody (BioXcell) were diluted in PBS and injected every other day for 21 days by intraperitoneal injection (20 μg/mouse). Tumor volume quantification was performed by using VivoQuant and Image J software. All mouse prostate MRI imaging analysis was performed at Small Animal Imaging Core at BIDMC and acquired on an ASPECT Model M2 1T tabletop scanner.

In assay [2] the test system is Pten^pc−/−; Zbtb7a^pc−/− prostate tumors. The assay is described as follows: Flow cytometry of immune infiltrate in treated Pten^pc−/−; Zbtb7a^pc−/− prostate tumors. The following applies: Zbtb7a^pc−/− prostate tumors after treatment. The method, then:
(§1) Mice were allocated at random to experimental groups and studies were performed in an unblended manner. For treatment with the CXCR2 antagonist, SB225002 (Cayman Chemical #13336) was dissolved in DMSO (10 mg/ml) and diluted in vehicle (0.9% NaCl, 0.3% Tween 80) for in vivo administration. Mice (4 months of age) were treated daily for 10 days by intraperitoneal injection (5 mg/kg) and prostate tumor tissue (anterior lobes) was subjected to Flow Cytometry and histological analysis. For MRI analysis, mice (4 months of age) were treated daily for 21 days (Pten^pc−/−; Zbtb7a^pc−/−), for 14 days (Pten^pc−/−; Trp53^pc−/−) or for 14 days (Pten^pc−/−; Pml^pc−/−) by intraperitoneal injection (5 mg/kg). For depletion of Gr-1+/CD11b+ cells, Ly6G-depletion antibody (1A8, BioXcell) and control Rat IgG2a antibody (BioXcell) were diluted in phosphate-buffered saline (PBS) for in vivo administration. Mice (4 months of age) were treated every other day for 10 days by intraperitoneal injection (200-300 μg/mouse). […] Tumor volume quantification was performed by using VivoQuant and Image J software. […]
(§2) For Flow Cytometry, spleen and lymph node single cell suspensions were prepared by mashing the tissue in 2% FBS/PBS. […] All staining mixtures were analyzed on a BD LSR II flow cytometer (Becton Dickinson). Resulting profiles were further processed and analyzed using the FlowJo 8.7 software.

For assay [3], the system named is Pten^pc−/−; Pml^pc−/− prostate tumors. The experiment in a line: Flow cytometry of immune infiltrate in treated Pten^pc−/−; Pml^pc−/− prostate tumors. The following applies: Pml^pc−/− prostate tumors after treatment. The method, then:
as §1, §2
In general terms: A flow cytometer gives signals particle by particle.

The subject of assay [4] is Pten^pc−/−; Trp53^pc−/− tumors (anterior prostate lobes). The assay is described as follows: Histological analysis of treated Pten^pc−/−; Trp53^pc−/− tumors. The settings on record: Trp53^pc−/− mice, 10 days of i.p. treatment, versus vehicle. The method, then:
as §1, with “mg/kg).” for “mg/kg). For depletion of Gr-1+/CD11b+ cells, Ly6G-depletion antibody (1A8, BioXcell) and control Rat IgG2a antibody (BioXcell) were diluted in phosphate-buffered saline (PBS) for in vivo administration. Mice (4 months of age) were treated every other day for 10 days by intraperitoneal injection (200-300 μg/mouse).”
For western blotting, cell lysates were prepared by homogenizing tumor tissue with NP40 Buffer (Boston Bioproducts) supplemented with protease (Roche) and HALT phosphatase inhibitor cocktails (Thermo Scientific) and subsequently subjected to SDS-Gel separation (Invitrogen) and western blotting. […] Western blots were quantified using Image J software. […] Embedding and hematoxylin and eosin staining of sections were performed by the Histology Core at BIDMC and analyzed by a pathologist. […]

The structures appear in SMILES notation. Values joined by “and” are separate entries in the source; they are usually repeats but may differ in a detail not shown here. Equal entries are not always repeated. “Also recorded” adds a separate entry of the source.

`O=C(Nc1ccc([N+](=O)[O-])cc1O)Nc1ccccc1Br` [SB225002]: the tumor volume was 67.016 mm3 and 32.276 mm3 and 66.382 mm3 in assay [1] (Pten-Trp53, CXCR2i (SB225002 5 mg/kg i.p. daily), row 0 = day 0 baseline, MRI); 53.809 mm3 and 31.739 mm3 and 68.018 mm3 in assay [1] (Pten-Trp53, CXCR2i, row 1 (weekly MRI)); 51.807 mm3 and 39.795 mm3 and 63.477 mm3 in assay [1] (Pten-Trp53, CXCR2i, row 2 (weekly MRI, 2 weeks on treatment)). Moreover, the tumor growth result in assay [1] (Pten^pc−/−, Trp53^pc−/− mice, versus vehicle or control IgG) is recorded as “significantly suppressed the tumor growth; also recorded: significant inhibition of tumor growth”. The “intra-tumoral Gr-1+/CD11b+ cells” value in assay [2] and in assay [3] was “decrease of Gr-1+/CD11b+ cells” throughout. For the same compound, the “tumor burden by histological analysis” value is reported as “reduced tumor burden” in assay [4] and “significantly diminished tumor involvement” in assay [4] (listed as CXCR2 inhibitor).

For the origin of these results see patent publication US20210301349A1, “COMPOSITIONS AND METHODS FOR TREATING A TUMOR SUPPRESSOR DEFICIENT CANCER” (BETH ISRAEL DEACONESS MEDICAL CENTER, INC., priority 2016, published 2021).
